Measured values: ChEMBL document CHEMBL1201862, “PubChem BioAssay data set” (2004)
The source made the active and inactive calls.

How the values were obtained:
BJ [1] = assay: cytotoxicity toward Ras-transformed BJeLR fibroblasts, dose response, cell-based, alamar blue fluorescence, cherrypicked samples (AID 2631); format: functional; conditions: Homo sapiens;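 note: confirmatory dose-response assay in RAS-dependent BJ fibroblasts engineered with TERT, LT and ST, with cytotoxicity read by fluorescence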
BJ [2] = assay: cytotoxicity toward BJ-TERT-LT-ST fibroblasts, dose response, cell-based, RAS-independent, luminescence (AID 1935); format: functional; conditions: Homo sapiens;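 note: BJ fibroblasts immortalized with TERT plus LT and ST oncogenes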
[3] = cytotoxicity toward DRD oncogenic fibroblasts, dose response, cell-based, non-viral oncogenic, luminescence (AID 1934); format: functional; conditions: Homo sapiens
[4] = Luminescence Cell-Based Dose Retest to Confirm Inhibitors of Cancer Stem Cells. [Related pubchem assays (depositor defined):AID2717, AID2721]; format: functional; conditions: Homo sapiens
BJ [5] = assay: cells; format: functional, cell-based; conditions: Homo sapiens
[6] = Luminescence Cell-Based Dose Confirmation HTS to Identify Activators of 5'UTR Stem-Loop Driven Alpha-Synuclein mRNA Translation in H4 Neuroglioblastoma Cells. [Related pubchem assays: 1829 (Project Summary), 1814 (Primary HTS)]; format: functional
H4 = assay: Luminescence Cell-Based Dose Response HTS to Identify Activators of 5'UTR Stem-Loop Driven Prion Protein mRNA Translation in H4 Neuroglioblastoma Cells. [Related pubchem assays: 1829 (Project Summary), 1814 (Primary HTS)]; format: functional; conditions: Homo sapiens
BJ [7] = assay: cytotoxicity toward BJ-TERT fibroblasts, dose response, cell-based, RAS-independent, luminescence (AID 1933); format: functional; conditions: Homo sapiens
[8] = Shn3 3'UTR reporter inhibitors, dose response, cell-based, Clone20 osteoblasts, firefly luciferase, cherry-picked (AID 624132); format: functional;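 note: firefly luciferase luminescence from reporter carrying the Shn3 3'UTR in osteoblasts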
[9] = molecular target: T1, Microphthalmia-associated transcription factor (Homo sapiens, UniProt O75030); assay: TRPM1 promoter luciferase signal decrease, dose response, MITF inhibitor project, cell-based, SK-MEL-5, cherry-picked, set 3 (AID 493073); format: functional
T1 sequence (O75030 whole entry): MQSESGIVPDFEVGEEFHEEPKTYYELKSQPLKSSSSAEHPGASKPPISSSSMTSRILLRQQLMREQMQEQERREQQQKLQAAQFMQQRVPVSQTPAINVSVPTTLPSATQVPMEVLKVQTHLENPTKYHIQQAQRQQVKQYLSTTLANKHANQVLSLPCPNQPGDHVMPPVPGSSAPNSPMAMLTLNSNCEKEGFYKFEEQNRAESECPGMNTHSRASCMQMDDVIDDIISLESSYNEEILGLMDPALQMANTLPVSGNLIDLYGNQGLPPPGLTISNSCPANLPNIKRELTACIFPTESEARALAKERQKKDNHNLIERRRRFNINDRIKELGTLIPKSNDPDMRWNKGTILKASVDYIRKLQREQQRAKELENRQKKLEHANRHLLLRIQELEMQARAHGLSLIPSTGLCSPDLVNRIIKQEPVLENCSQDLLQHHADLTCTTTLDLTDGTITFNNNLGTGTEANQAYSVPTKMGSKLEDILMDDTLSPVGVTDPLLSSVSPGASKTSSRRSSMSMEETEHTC

[10] = Luminescence Cell-Based Dose Response HTS to Identify Activators of Luciferase Translation or Activity in H4 […] Cells. [Related pubchem assays: 1829 (Project Summary), 1814 (Primary HTS)]; format: functional
INS1 = assay: beta cell apoptosis inhibitors, cytokine rescue, dose response, luminescence, retest (AID 449756); format: functional, cell-based; conditions: Rattus norvegicus;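 note: cell death triggered by IL-1 beta plus TNF-alpha plus IFN-gamma mixture; protective hits raise ATP signal compared with cytokine alone wells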
Prothrombin = Prothrombin (Bos taurus, UniProt P00735); assay: thrombin inhibition, dose response, biochemical, fluorescence polarization, uHTS hits (AID 602369); format: functional
[11] = molecular target: 72 kDa type IV collagenase (Homo sapiens, UniProt P08253); assay: Dose Response validation of uHTS RPN11 inhibitor hits using a MMP-2 Fluorescence assay.; format: functional
Chain of 72 kDa type IV collagenase (P08253 whole entry, the tested form may be a part): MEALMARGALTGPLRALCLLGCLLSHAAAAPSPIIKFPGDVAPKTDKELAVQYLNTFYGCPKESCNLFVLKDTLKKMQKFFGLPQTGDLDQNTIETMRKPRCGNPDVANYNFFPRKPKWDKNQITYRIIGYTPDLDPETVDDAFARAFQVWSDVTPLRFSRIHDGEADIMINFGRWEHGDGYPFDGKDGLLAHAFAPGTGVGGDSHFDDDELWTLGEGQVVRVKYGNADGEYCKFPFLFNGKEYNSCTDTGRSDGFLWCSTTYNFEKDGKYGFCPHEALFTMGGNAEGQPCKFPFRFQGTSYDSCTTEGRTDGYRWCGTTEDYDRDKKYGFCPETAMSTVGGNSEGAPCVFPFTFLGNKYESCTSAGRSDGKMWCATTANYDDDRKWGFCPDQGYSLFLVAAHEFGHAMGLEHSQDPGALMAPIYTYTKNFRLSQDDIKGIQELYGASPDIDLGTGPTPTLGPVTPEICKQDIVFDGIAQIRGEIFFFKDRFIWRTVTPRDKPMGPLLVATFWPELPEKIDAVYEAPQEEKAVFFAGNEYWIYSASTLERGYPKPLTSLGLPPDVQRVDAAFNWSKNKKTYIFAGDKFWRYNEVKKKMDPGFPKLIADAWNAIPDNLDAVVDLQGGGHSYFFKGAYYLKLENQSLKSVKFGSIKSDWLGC

[12] = molecular target: T2, Carboxy-terminal domain RNA polymerase II polypeptide A small phosphatase 1 (Homo sapiens, UniProt Q9GZU7); assay: inhibitors of CTDSP1, concentration-response testing, biochemical assay, absorbance-based, actives from ultra-high-throughput screening (AID 540297); format: functional
T2 sequence (Q9GZU7 whole entry): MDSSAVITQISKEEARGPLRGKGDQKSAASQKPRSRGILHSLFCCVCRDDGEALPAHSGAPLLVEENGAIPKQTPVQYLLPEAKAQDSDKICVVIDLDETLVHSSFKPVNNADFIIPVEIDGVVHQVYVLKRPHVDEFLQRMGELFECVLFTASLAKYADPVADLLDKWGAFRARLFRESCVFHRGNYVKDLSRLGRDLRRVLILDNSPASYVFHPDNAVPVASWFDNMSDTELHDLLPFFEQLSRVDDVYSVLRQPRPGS

[13] = molecular target: 26S proteasome non-ATPase regulatory subunit 14 (Homo sapiens, UniProt O00487); assay: inhibition of proteasome subunit RPN11 – biochemical, fluorescence polarization, uHTS hits, confirmation (AID 602368); format: functional
Chain of 26S proteasome non-ATPase regulatory subunit 14 (O00487 whole entry): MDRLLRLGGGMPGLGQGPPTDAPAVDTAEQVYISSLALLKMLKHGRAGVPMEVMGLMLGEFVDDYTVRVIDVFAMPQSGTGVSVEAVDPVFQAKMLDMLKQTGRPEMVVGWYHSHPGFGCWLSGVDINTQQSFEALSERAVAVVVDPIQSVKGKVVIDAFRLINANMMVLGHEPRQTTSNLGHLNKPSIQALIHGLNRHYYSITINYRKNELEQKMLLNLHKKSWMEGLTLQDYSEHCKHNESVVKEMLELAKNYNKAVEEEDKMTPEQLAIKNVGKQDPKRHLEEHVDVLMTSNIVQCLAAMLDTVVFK

SN12K1 = assay: cells; format: functional; conditions: Homo sapiens
P388 = assay: cells; format: functional; conditions: Mus musculus
P388/ADR = assay: cells; format: functional; conditions: Mus musculus
[14] = inhibitors of intracellular T. cruzi replication, confirmation, NIH3T3 host cells, beta-gal luminescence (AID 2044); format: functional, cell-based;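 note: intracellular parasites grown in NIH/3T3 mouse fibroblasts as host cells; luminescent beta-galactosidase reporter signal from transgenic T. cruzi replicating inside host cells; inhibitors lower the luminescence signal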
[15] = molecular target: T3, E3 ubiquitin-protein ligase XIAP (Homo sapiens, UniProt P98170); assay: XIAP antagonists, biochemical, IAP family, fluorescence polarization (AID 1018); format: functional
T3 sequence (P98170 whole entry): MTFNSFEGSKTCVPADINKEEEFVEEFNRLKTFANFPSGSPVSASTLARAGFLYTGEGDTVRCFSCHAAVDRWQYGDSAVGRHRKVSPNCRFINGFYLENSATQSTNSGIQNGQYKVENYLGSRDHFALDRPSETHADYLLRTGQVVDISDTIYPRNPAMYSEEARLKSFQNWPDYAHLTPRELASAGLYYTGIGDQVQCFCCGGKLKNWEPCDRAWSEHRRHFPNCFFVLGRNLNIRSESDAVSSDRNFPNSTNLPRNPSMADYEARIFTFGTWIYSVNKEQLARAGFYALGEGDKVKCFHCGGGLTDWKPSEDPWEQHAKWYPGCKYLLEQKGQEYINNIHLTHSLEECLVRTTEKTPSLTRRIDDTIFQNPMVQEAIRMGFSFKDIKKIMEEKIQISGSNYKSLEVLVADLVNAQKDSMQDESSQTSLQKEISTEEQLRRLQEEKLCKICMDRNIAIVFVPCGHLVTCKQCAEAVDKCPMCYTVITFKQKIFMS

[16] = molecular target: T3, E3 ubiquitin-protein ligase XIAP; assay: Counter Screen using XIAP-Bir3 for Chemical Antagonists of Bir1/2 domains of IAP-family anti-apoptotic proteins. [Related pubchem assays (depositor defined):AID1018, AID1449, AID1514, AID1638, AID1749, AID1750, AID488957, AID488963]
[17] = cytotoxicity toward NIH3T3 fibroblasts, dose response, counter-screen, cell-based, ATP luminescence, mouse fibroblasts (AID 2010); format: functional;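 note: cells exposed to compound for about 90 hours before reading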
Coagulation factor XII = molecular target: T4, Coagulation factor XII (Homo sapiens, UniProt P00748); format: functional;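 note: activated factor XIIa alpha cleaving a fluorogenic AMC peptide substrate; inhibitor potency from loss of enzyme activity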
T4 sequence (P00748 whole entry): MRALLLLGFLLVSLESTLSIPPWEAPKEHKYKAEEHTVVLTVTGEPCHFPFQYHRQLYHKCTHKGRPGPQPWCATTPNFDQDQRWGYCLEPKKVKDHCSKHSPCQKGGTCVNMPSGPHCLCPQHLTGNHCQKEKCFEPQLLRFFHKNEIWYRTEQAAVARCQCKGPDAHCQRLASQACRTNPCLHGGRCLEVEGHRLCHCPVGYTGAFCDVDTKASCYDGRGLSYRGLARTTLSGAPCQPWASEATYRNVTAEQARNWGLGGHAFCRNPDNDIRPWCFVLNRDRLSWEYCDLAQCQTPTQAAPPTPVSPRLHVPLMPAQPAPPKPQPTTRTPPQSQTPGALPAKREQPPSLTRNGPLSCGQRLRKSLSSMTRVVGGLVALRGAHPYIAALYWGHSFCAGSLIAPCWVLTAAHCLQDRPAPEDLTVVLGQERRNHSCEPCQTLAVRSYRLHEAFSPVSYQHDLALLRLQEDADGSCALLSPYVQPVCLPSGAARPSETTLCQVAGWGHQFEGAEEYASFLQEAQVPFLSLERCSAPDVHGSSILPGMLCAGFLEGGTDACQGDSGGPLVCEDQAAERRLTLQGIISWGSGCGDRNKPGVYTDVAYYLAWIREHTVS

[18] = molecular target: DNA (cytosine-5)-methyltransferase 1 (Homo sapiens, UniProt P26358); assay: DNMT1 methyltransferase inhibitors, confirmation, biochemical, fluorescent molecular beacon (AID 602386); format: functional
Chain of DNA (cytosine-5)-methyltransferase 1 (P26358 whole entry): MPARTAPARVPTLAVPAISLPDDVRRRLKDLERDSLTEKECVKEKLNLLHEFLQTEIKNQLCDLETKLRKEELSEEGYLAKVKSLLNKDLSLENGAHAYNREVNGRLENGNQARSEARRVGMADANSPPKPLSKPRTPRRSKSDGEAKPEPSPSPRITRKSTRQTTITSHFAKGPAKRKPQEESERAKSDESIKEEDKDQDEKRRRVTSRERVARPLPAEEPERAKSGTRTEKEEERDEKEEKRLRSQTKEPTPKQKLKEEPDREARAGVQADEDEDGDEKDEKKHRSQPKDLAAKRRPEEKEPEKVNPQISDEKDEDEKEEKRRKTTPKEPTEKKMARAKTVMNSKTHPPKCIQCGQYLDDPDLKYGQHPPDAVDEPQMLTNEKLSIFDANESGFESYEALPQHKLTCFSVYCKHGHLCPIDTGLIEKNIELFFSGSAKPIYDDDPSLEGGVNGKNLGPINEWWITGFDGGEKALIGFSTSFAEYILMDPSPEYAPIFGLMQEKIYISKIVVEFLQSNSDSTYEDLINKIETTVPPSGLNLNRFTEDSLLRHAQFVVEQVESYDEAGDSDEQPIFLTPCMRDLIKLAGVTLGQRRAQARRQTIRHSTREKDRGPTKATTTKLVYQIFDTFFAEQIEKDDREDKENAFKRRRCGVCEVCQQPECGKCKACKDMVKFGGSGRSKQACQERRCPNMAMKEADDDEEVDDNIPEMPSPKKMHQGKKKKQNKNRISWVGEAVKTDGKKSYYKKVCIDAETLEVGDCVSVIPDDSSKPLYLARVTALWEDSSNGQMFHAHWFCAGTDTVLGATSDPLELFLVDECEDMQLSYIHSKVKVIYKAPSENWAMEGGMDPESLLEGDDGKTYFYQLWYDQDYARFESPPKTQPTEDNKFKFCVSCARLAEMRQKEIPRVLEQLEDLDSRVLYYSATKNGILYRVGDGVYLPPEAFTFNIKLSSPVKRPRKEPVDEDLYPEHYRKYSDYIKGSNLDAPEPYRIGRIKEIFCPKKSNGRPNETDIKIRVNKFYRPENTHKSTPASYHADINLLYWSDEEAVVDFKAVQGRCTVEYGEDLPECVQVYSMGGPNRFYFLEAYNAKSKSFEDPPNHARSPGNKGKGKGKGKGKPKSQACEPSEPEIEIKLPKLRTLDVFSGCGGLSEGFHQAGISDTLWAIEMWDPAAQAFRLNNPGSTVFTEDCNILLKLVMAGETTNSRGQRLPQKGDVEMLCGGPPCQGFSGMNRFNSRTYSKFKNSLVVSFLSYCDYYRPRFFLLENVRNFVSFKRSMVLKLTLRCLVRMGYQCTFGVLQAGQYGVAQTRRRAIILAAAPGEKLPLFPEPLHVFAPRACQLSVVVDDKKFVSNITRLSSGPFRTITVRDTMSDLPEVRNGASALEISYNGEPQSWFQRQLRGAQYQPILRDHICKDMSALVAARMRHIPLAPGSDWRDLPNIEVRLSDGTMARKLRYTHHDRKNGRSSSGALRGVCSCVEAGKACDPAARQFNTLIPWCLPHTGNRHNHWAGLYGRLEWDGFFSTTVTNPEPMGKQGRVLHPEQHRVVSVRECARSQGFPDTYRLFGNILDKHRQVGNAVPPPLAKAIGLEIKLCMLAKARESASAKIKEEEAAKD

Cytochrome P450 3A4 = Cytochrome P450 3A4 (Homo sapiens, UniProt P08684);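 note: CYP3A4 tested as one member of a cytochrome P450 panel screen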
Chain of Cytochrome P450 3A4 (P08684 whole entry): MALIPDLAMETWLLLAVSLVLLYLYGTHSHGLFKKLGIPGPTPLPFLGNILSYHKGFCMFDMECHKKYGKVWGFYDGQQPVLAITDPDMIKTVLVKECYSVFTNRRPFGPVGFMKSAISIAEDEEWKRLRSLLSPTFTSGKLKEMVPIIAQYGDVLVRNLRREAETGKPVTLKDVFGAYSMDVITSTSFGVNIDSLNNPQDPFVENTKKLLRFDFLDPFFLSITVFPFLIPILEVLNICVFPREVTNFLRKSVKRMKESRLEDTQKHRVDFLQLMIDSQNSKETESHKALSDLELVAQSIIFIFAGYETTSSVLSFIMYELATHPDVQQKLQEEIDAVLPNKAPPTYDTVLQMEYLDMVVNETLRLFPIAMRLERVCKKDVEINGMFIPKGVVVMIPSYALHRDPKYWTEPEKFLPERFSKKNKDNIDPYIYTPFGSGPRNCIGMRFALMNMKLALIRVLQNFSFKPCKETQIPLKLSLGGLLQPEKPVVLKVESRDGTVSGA

Cytochrome P450 1A2 = molecular target: T5, Cytochrome P450 1A2 (Homo sapiens, UniProt P05177);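 note: PubChem cytochrome P450 panel assay, CYP1A2 panel member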
T5 sequence (P05177 whole entry): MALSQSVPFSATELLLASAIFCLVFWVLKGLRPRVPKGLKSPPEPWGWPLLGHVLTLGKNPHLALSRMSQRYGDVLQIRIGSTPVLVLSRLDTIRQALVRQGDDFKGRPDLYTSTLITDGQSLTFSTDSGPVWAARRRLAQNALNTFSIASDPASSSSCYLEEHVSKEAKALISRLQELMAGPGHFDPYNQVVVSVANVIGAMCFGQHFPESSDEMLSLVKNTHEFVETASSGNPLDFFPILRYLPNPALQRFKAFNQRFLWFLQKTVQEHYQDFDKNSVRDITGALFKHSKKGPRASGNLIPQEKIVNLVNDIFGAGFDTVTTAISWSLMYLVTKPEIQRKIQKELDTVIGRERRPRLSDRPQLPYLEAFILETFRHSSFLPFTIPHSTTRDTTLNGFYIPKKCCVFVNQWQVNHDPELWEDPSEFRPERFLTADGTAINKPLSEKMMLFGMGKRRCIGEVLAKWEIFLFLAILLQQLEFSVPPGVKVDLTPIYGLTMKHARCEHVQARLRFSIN

Cytochrome P450 2D6 = Cytochrome P450 2D6 (Homo sapiens, UniProt P10635);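 note: CYP2D6 member of a cytochrome P450 panel assay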
Chain of Cytochrome P450 2D6 (P10635 whole entry): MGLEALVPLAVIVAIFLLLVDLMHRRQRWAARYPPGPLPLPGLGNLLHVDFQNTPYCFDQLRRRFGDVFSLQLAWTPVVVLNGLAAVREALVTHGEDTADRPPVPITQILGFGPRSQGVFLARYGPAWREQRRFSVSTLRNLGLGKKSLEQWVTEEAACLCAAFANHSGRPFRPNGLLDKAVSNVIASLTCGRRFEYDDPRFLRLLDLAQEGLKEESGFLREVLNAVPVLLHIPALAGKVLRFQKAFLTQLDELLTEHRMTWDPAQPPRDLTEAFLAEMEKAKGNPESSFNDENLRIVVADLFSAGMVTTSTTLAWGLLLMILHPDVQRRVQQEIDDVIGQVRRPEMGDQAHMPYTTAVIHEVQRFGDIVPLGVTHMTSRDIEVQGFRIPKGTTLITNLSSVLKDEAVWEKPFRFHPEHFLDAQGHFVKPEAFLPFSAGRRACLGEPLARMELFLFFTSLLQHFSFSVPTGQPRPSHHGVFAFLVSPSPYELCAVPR

Cytochrome P450 2C19 = Cytochrome P450 2C19 (Homo sapiens, UniProt P33261); assay: Cytochrome panel assay with activity outcomes. Panel member name: p450-cyp2c19 Compounds with AC50 equal or less than 10 uM are considered active; format: functional; conditions: read-out: AC50
Chain of Cytochrome P450 2C19 (P33261 whole entry): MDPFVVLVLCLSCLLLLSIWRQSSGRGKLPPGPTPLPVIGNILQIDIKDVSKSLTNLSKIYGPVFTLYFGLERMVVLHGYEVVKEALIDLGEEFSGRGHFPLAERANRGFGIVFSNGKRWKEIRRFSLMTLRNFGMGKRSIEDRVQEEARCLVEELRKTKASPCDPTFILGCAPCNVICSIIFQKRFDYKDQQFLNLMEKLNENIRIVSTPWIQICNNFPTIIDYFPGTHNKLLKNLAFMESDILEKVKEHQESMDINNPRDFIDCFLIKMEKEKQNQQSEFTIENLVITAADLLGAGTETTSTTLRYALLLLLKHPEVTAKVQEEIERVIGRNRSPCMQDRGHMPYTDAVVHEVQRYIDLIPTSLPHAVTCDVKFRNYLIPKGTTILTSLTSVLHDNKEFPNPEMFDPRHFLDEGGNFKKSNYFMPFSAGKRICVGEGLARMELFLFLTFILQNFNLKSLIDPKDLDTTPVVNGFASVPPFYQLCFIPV

## CCN(CC)Cc1c(O)ccc2c1O/C(=C\C=C\c1ccccc1)C2=O
BJ [1]
  EC50: > 133 µM (inactive)
BJ [2]
  EC50: > 150 µM (inconclusive)
[3]
  EC50: 55.7 µM (active)
[4]
  AC50: 16.6 µM (active)
BJ [5]
  EC50: > 150 µM (not active)
[6]
  EC50: 16.5 µM (active)
H4
  EC50: > 120 µM (not active)
BJ [7]
  EC50: > 150 µM (not active)
[8]
  AC50: 1.96 µM (active)
[9]
  AC50: 47.6 µM (active)
[10]
  EC50: 29.6 µM (active)
INS1
  AC50: > 120 µM (inactive)

## Cc1ccc(CSCC(=O)N/N=C/c2ccc(OCC(=O)Nc3ccc(C)cc3)cc2)cc1
Prothrombin
  IC50: 96.9 µM (active)
[11]
  IC50: > 100 µM (inactive)
[12]
  IC50: 3.43 µM (active)
[13]
  IC50: 11.9 µM (active)

## Cc1c2ccnc(C(F)(F)F)c2cc2c1[nH]c1ccccc12
SN12K1
  GI50: 58.5 µM (inactive)
P388
  GI50: > 125 µM (inactive)
P388/ADR
  GI50: 78.9 µM (inactive)

## CN(C)CCCn1c(-c2ccccc2)nc(=S)c2c1CCCC2
[14]
  EC50: 0.697 µM (active)
[15]
  IC50: > 100 µM (not active)
[16]
  IC50: > 100 µM (inactive)
[17]
  EC50: > 60 µM (not active)

## C=C(C)C(=O)Nc1cccc(C2=NOC3(C2)C[C@H](C(N)=O)N(C(=O)CC)C3)c1 (stereo not given in full)
Coagulation factor XII
  IC50: > 50 µM (inactive)
[18]
  IC50: 4.32 µM (active)

## CCOC(=O)c1c(C)nc2c(c1-c1ccccc1)C(=O)CCC2
Cytochrome P450 3A4
  AC50: inconclusive

## C#CCN[C@@H](C)Cc1ccccc1
Cytochrome P450 1A2
  AC50: 15.8 µM (inconclusive)
Cytochrome P450 3A4
  AC50: inconclusive
Cytochrome P450 2D6
  AC50: 25.1 µM (inconclusive)

## CC(O)C(O)C(N)CC=O (stereo not given)
SN12K1
  GI50: > 500 µM (inactive)
P388
  GI50: > 500 µM (inactive)
P388/ADR
  GI50: > 500 µM (inactive)

## CC(C)C(=O)Nc1ccc(C(=O)NCc2cccnc2)cc1
BJ [1]
  EC50: 18.9 µM (active)
BJ [2]
  EC50: 19.4 µM (inconclusive)
[3]
  EC50: > 150 µM (not active)
BJ [5]
  EC50: 3.86 µM (active)
BJ [7]
  EC50: > 150 µM (not active)

## COc1ccccc1NC(=O)CCc1nc2sc3c(c2c(=O)[nH]1)CCCC3
Prothrombin
  IC50: 47.9 µM (active)
[11]
  IC50: > 100 µM (inactive)
[13]
  IC50: 33.1 µM (active)

## CN1CCN(c2ccc(NC(=S)NC(=O)c3cccc4ccccc34)cc2)CC1
[9]
  AC50: 9 µM (active)

## O=C(CCl)NC(Cc1ccc(F)cc1)C(=O)O (stereo not given)
SN12K1
  GI50: > 100 µM (inactive)
P388
  GI50: > 100 µM (inactive)
P388/ADR
  GI50: > 100 µM (inactive)

## Cc1cc(C)cc(NC(=O)Nc2ccc3c(c2)N(C)C(=O)CS3)c1
[15]
  IC50: > 100 µM (not active)
[16]
  IC50: > 100 µM (inactive)

## C/C(=N\NC(=S)N1CC2CCC(CC2)C1)c1nccs1
SN12K1
  GI50: < 0.01 µM (active)
P388
  GI50: < 0.01 µM (active)
P388/ADR
  GI50: < 0.01 µM (active)

## CCOC(=O)NC(=O)/C(C#N)=C/c1ccc(N(C)C)cc1
Prothrombin
  IC50: 25.6 µM (active)
[11]
  IC50: > 100 µM (inactive)
[13]
  IC50: 14.7 µM (active)

## O=C(NCc1cccnc1)c1ccc(NC(=O)c2ccc([N+](=O)[O-])cc2)cc1
BJ [1]
  EC50: > 66.7 µM (inactive)
BJ [2]
  EC50: > 150 µM (not active)
[3]
  EC50: > 150 µM (not active)
BJ [5]
  EC50: 15.9 µM (inconclusive)
BJ [7]
  EC50: > 150 µM (not active)
INS1
  AC50: < 0.195 µM (active)

## O=C(C1CCN(S(=O)(=O)N2CCOCC2)CC1)N1CCN(Cc2ccccc2)CC1
Cytochrome P450 2C19
  AC50: 14.1 µM (inconclusive)
Cytochrome P450 3A4
  AC50: inconclusive
